Reference: patent US12310974B1, “Method of treating post-traumatic stress disorder with carpipramine” (priority 2023, dated 2025)

Tests used:
[1] = tested on: rats subjected to psychosocial stress; experiment: Context memory test after predator exposure and housing instability; type: in vivo; details: daily i.p. 21 days: carpipramine 5, sertraline 5, amitriptyline 2, quetiapine 10 mg/kg, 5 min in chamber
Protocol: (§1) An experiment was conducted to assess the effects of carpipramine, sertraline, amitriptyline and quetiapine in rates subjected to psychosocial stress (predator exposure and housing instability) against PTSD-like behaviours, based on a protocol adapted from Zoladz et al (2012).
(§2) Adult male Sprague-Dawley rats were used in all experiments. Fifty (50) rats were pair-housed on a 12-h light/dark schedule in cages with free access to food and water.
(§3) Following a 1-week acclimation phase, they were given two 1-h cat exposures, separated by 10 days, in conjunction with daily social stress in the form of randomized housing. During each of the two cat exposures, rats were placed in a perforated wedge-shaped Plexiglas enclosure. The rats, still immobilized within the Plexiglas enclosure, were taken to the cat housing room where they were placed in a metal cage with an adult female cat for 1 hour. The Plexiglas enclosure prevented any physical contact between the cat and rats, but enabled the rats to be exposed to all non-tactile sensory stimuli associated with the cat. The two cat exposures were separated by 10 days, with the first exposure taking place during the light cycle, and the second exposure taking place during the dark cycle. Beginning on the day of the first cat exposure, rats were exposed to unstable housing conditions for the next 31 days. They were housed two rats per cage, with their cohort pair combination changed on a daily basis during the entire 31-day stress period.
(§4) The rats were randomly assigned to 5 groups of 10, treated with carpipramine, sertraline, amitriptyline, quetiapine and saline. The treatments were administered as daily intraperitoneal injections over 21 days, starting from the day following the second cat exposure. Daily doses were as following: • Carpipramine: 5 mg/kg • Sertraline: 5 mg/kg • Amitriptyline: 2 mg/kg • Quetiapine: 10 mg/kg
(§5) Since a major component of PTSD is the persistent memory of a traumatic experience, a method with which to measure a rat's memory for the cat exposure experiences was used. Thus, rats were given a predator-based form of fear conditioning. The rats were placed in a chamber for 3 minutes immediately prior to each of the two cat exposures. The chamber consisted of two aluminium sides, an aluminium ceiling and clear Plexiglas on the front and back walls and speaker on one wall. A 74 dB, 2500 Hz tone was presented during the last 30 seconds of each chamber exposure. Three weeks following the second cat exposure, the rats were tested for their conditioned fear memory by assessing their freezing response (degree of immobility) when they were returned to the chamber and exposed to the tone. […] For the cue memory test, the percentage of immobile time was measured during the last 3 minutes (i.e. during the tone).

[2] = tested on: rats subjected to psychosocial stress; experiment: Cue memory test after predator exposure and housing instability; type: in vivo; details: daily i.p. 21 days: carpipramine 5, sertraline 5, amitriptyline 2, quetiapine 10 mg/kg, last 3 minutes (tone)
Protocol: as §1, §2, §3, §4, §5

[3] = tested on: rats subjected to psychosocial stress; experiment: Elevated plus maze (EPM) after predator exposure and housing instability; type: in vivo; details: daily i.p. 21 days: carpipramine 5, sertraline 5, amitriptyline 2, quetiapine 10 mg/kg, 5 min on EPM
Protocol: as §1, §2, §3, §4
Twenty-four hours after fear conditioning memory testing, the rats were placed on an elevated plus maze (EPM) for 5 minutes. The EPM is a routine test of anxiety in rodents and consists of two open arms and two closed arms of same size (11 cm by 50 cm) that intersect each other to form the shape of a plus sign. At the beginning of each trial, the rats were placed in the intersection area of the EPM, facing one of the open arms. The primary dependent measures of interest were the amount of time rats spent in the open arms and their overall ambulations.

alpha-1 adrenoreceptors = details: cited from earlier work
socially isolated mice [4] = experiment: Contextual fear conditioning and extinction (freezing) in socially isolated mice; type: in vivo; details: for Change in duration of freezing, mean: carpipramine 10 mg/kg s.c., change from day 1
From the text: Socially isolated mice express a decrease in corticolimbic allopregnanolone levels that is associated with an enhancement of contextual fear responses and impaired fear extinction. Social isolation can be seen as a prolonged stress that is often associated with a precipitating traumatic event, which leads to maladaptive post-stress adaptations and emergence of PTSD in patients. Thus, social isolation is considered to offer a suitable model to study vulnerability to PTSD.
Ten (10) male Swiss-Webster mice were socially isolated for a period of 4 weeks, in individual cages, according to a protocol proposed by Pinna et al.
Day 0—Training Test. During the training, mice were placed into the training chamber and allowed to explore it for 2 min. After this time, they received a conditioned stimulus (acoustic tone, 30 seconds, 85 dB) co-terminated with an unconditioned stimulus (electric foot shock, 2 s, 0.5 mA). This was repeated three times every 2 min. After the last stimuli, mice were allowed to explore the context for an additional minute before removal from the training chamber (total of 8 min).
Day 1—Contextual Test. Twenty-four hours after training, the mice were placed in the contextual cage, and freezing behavior was measured for 5 min without tone or foot shock presentation. Freezing was defined by the absence of any movement except for those related to respiration while the animal was in a stereotypical crouching posture. Freezing time in a index of fear response.
Days 2-5—Extinction Test. For contextual extinction experiments, mice were placed in the contextual cage for periods of 5 min over 4 consecutive days starting 24 h after the contextual test, and freezing behavior was measured.
After the contextual test, 5 mice received a dose of 10 mg/kg of carpipramine subcutaneously. Injections were repeated on days 2 to 4.

socially isolated mice [5] = experiment: Forced swim test after social isolation (depressive-like behaviour); type: in vivo; details: forced swim day 36 vs pre-test day 21, minutes 3 to 6; daily s.c. for 2 weeks: carpipramine 5 mg/kg, paroxetine 1 mg/kg, olanzapine 0.3 mg/kg
Protocol: The mice were socially isolated for a period of 3 weeks in individual cages, with a 12-hour light/dark cycle. They had access to food and water at libitum. On day 21, a pre-test was performed. Cylindrical tanks were filled with water (approximately 25° C.) to a depth that prevents mice from touching the bottom. Each mouse was placed in a water-filled cylinder for 6 minutes. If the mouse was swimming or struggling after 6 minutes, it was gently submerged, so that it would struggle under the surface for up to 20 seconds. After this time elapsed, the mouse was removed from the container and placed in a transient drying cage with a heat lamp above it and a heat pad under it. The mice were closely and continuously monitored while recovering in this cage. […] The test was performed on day 36. Mice were placed again in water-filled cylinders for 6 minutes, and then moved to a drying cage. The behaviour of mice was coded over the minutes 3 to 6 of each test, in 3 categories: immobile, struggling and swimming. The time associated with each type of behaviour was recorded. A reduction in immobility time is considered predictive of antidepressant properties.

PTSD patients = experiment: Clinical case reports of patients with PTSD; type: in vivo, human
From the text: A person was referred to a psychiatrist by […] general practitioner as they suffered from anxiety, sleep problems and nightmares. […] They were on leave from their position as a teacher. The subject was diagnosed with PTSD and a cognitive behavioural therapy was initiated.
A patient was followed by a psychiatrist due to depression symptoms, including sadness, feeling of hopelessness, apathy and anxiety. […] Fluoxetine was stopped after 6 months. About one year later, the depression symptoms recurred, alongside with auditory hallucinations. The patient was then. […] Three months later, fluoxetine was reintroduced alongside with risperidone. The patient's mood improved, but they still suffered from anxiety and auditory hallucinations. After 6 weeks with the combination of risperidone and fluoxetine, risperidone was replaced by carpipramine (150 mg/day).
A veteran presented to a psychiatrist with major depressive disorder (sadness, irritability, poor concentration, suicidal thoughts). […] New symptoms emerged, including nightmares and anxiety. […] Three months later, the patient relapsed, and was experiencing anxiety symptoms, nightmares and mildly depressed mood. The relapse was treated with carpipramine (initiated at 200 mg/day), which led to remission after 4 weeks of treatment. The patient's condition was stable for about 3 years. The symptoms (anxiety, nightmares, moderately depressed mood) reappeared after that time, together with hallucinations and flashbacks of combat. The diagnostic of PTSD was then established. Carpipramine (200 mg/day) was prescribed again, following the previous experience. The patient entered remission after 3 weeks of treatment.

DA receptors = details: rat striatum in vitro; order of potency Y-516 > clocapramine > carpipramine; cited from earlier work
serotonin uptake = details: studies on metabolic fate and serotonin levels in the brain; cited from earlier work
[6] = Example 6: veteran, sertraline first, switched to venlafaxine, olanzapine subsequently added
[7] = Example 5: patient, fluoxetine as initial treatment, risperidone with psychological therapy

## CN(C)CCC=C1c2ccccc2CCc2ccccc21 [Amitriptyline]
[1]
  Context memory % immobility time, mean: 64.5%
[2]
  Cue memory (during tone) % immobility time, mean: 42.7%
[3]
  EPM-Open arm exploration % time in open arm, mean: 20.6%

## CN(C)C(=O)N[C@H]1CC[C@H](CCN2CCN(c3cccc(Cl)c3Cl)CC2)CC1 [Cariprazine]
alpha-1 adrenoreceptors
  affinity for alpha-1 adrenoreceptors: low affinity

## NC(=O)C1(N2CCCCC2)CCN(CCCN2c3ccccc3CCc3ccccc32)CC1 [Carpipramine]
Socially isolated mice [4]; day 1 contextual test, treated group before first injection (carpipramine 10 mg/kg s.c. given after the test)
  mean duration of freezing: 117 s
Socially isolated mice [4]; day 2
  Change in duration of freezing, mean: -76 s
Socially isolated mice [4]; day 3
  Change in duration of freezing, mean: -93 s
Socially isolated mice [4]; day 4
  Change in duration of freezing, mean: -98 s
Socially isolated mice [4]; day 5
  Change in duration of freezing, mean: -99 s
Socially isolated mice [4]; treated group after extinction tests, carpipramine 10 mg/kg s.c. day 1 and days 2 to 4, p<0.01 vs control
  duration of freezing decreased to: 18 s
Socially isolated mice [5]
  Mean change in immobility time compared to pre-test: -104.3 s
[1]
  Context memory % immobility time, mean: 22.3%
[2]
  Cue memory (during tone) % immobility time, mean: 14.6%
[3]
  EPM-Open arm exploration % time in open arm, mean: 42.1%
PTSD patients; Example 4: person, oral carpipramine 100 mg/daily with cognitive behavioural therapy
  clinical outcome of PTSD symptoms: All PTSD symptoms improved markedly
PTSD patients; Example 5: patient, carpipramine 150 mg/day replacing risperidone, alongside fluoxetine
  clinical outcome: entered in remission two weeks later
PTSD patients; Example 6: first relapse, carpipramine initiated at 200 mg/day
  time to remission: 4 weeks
PTSD patients; Example 6: recurrence about 3 years later, PTSD diagnosed, carpipramine 200 mg/day
  time to remission: 3 weeks
DA receptors
  affinity for DA receptors: high affinity
Serotonin uptake
  effect on serotonin uptake: did not modify serotonin uptake

## Cc1cc2c(s1)Nc1ccccc1N=C2N1CCN(C)CC1 [Olanzapine]
Socially isolated mice [5]
  Mean change in immobility time compared to pre-test: +19.5 seconds

## Fc1ccc([C@@H]2CCNC[C@H]2COc2ccc3c(c2)OCO3)cc1 [Paroxetine]
Socially isolated mice [5]
  Mean change in immobility time compared to pre-test: -82.2 s

## OCCOCCN1CCN(C2=Nc3ccccc3Sc3ccccc32)CC1 [Quetiapine]
[1]
  Context memory % immobility time, mean: 53.4%
[2]
  Cue memory (during tone) % immobility time, mean: 39.3%
[3]
  EPM-Open arm exploration % time in open arm, mean: 28.7%

## CN[C@H]1CC[C@@H](c2ccc(Cl)c(Cl)c2)c2ccccc21 [Sertraline]
[1]
  Context memory % immobility time, mean: 37.1%
[2]
  Cue memory (during tone) % immobility time, mean: 25.7%
[3]
  EPM-Open arm exploration % time in open arm, mean: 32.5%
PTSD patients; [6]
  clinical outcome of earlier treatments: no improvement

## NC(=O)C1(N2CCCCC2)CCN(CCCN2c3ccccc3CCc3ccc(Cl)cc32)CC1 [clocapramine]
DA receptors
  affinity for DA receptors: high affinity

## CNCCC(Oc1ccc(C(F)(F)F)cc1)c1ccccc1 (stereo not drawn) [fluoxetine]
PTSD patients; [7]
  clinical outcome of earlier treatments: improvement in most symptoms, but anxiety persisted

## Cc1nc2n(c(=O)c1CCN1CCC(c3noc4cc(F)ccc34)CC1)CCCC2 [risperidone]
PTSD patients; [7]
  clinical outcome of earlier treatments: modest improvement

## COc1ccc(C(CN(C)C)C2(O)CCCCC2)cc1 (stereo not drawn) [venlafaxine]
PTSD patients; [6]
  clinical outcome of earlier treatments: some improvement, but severe symptoms persisted
